The values that follow come from patent publication US20260098061A1, “EPHA2-BINDING PENDING PEPTIDE AND COMPOSITION COMPRISING SAME” (PeptiDream Inc., priority 2022, published 2026).

Numbered stars: 1 amine (or outer) side, 2 acyl side, 3 side chain; on linkers, the order of the positions; unused ones are H or OH. Bridge positions count the residues as written; N and C are the ends. Square brackets hold non-standard residues; d marks the D form. Primed or numbered codes have the meaning given here. Side chains are listed from the residue outwards. Peptide text beside a SMILES is read from it. * marks the point of attachment. Hgn(3) = 2-amino-5-carbamoylpentanoic acid (homoglutamine), NC(=O)CCC[C@H](N[*:1])C(=O)[*:2]; NH(1-deoxy-D-glucityl) = OC[C@@H](O)[C@@H](O)[C@H](O)[C@@H](O)CN*; Trp(1-Me,7-Cl) = Cn1cc(C[C@H](N)C(=O)O)c2cccc(Cl)c21; Ala(2-NH2-4-pyridyl) = Nc1cc(C[C@H](N)C(=O)O)ccn1; dPhe(3-CONH2) = NC(=O)c1cccc(C[C@@H](N)C(=O)O)c1; NMePhe(4-Cl) = CN[C@@H](Cc1ccc(Cl)cc1)C(=O)O; Piperazinyl(4-CH2COOH) = O=C(O)CN1CCN(*)CC1; Trp(1-Me) = Cn1cc(C[C@H](N)C(=O)O)c2ccccc21; NMe3Pal = CN[C@@H](Cc1cccnc1)C(=O)O; NMeF = CN[C@@H](Cc1ccccc1)C(=O)O; hArg = N=C(N)NCCCC[C@H](N)C(=O)O; hCit = NC(=O)NCCCC[C@H](N)C(=O)O; Gly(cBu) = N[C@H](C(=O)O)C1CCC1; NMeE = CN[C@@H](CCC(=O)O)C(=O)O; Aad = N[C@@H](CCCC(=O)O)C(=O)O; NMeN = CN[C@@H](CC(N)=O)C(=O)O; Chg = N[C@H](C(=O)O)C1CCCCC1; CO = O=C([*:1])[*:2]; βAla = NCCC(=O)O

T1 sequence (P29317 24-534 limits assumed): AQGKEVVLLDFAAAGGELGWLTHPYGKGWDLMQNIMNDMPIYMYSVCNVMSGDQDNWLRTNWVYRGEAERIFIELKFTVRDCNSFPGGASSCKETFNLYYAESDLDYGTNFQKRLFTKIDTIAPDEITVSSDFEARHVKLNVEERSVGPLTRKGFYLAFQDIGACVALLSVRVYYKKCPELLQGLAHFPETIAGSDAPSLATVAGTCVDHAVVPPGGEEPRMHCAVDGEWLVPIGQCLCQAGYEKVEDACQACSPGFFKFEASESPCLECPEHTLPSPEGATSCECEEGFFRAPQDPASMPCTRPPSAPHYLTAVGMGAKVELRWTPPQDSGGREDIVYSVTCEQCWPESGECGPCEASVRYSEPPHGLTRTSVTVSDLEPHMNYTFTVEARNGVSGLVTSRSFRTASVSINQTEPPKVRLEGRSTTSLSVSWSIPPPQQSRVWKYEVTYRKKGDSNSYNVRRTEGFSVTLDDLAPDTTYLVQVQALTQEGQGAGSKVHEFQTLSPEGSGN

The first assay has as its target T1, Recombinant Human EphA2 Fc Protein (Fc tag, Elabscience) (human, UniProt P29317 24-534).
T1 construct: Bought protein (Elabscience), captured with the Human Antibody Capture kit; also called hEphA2; not shown: Fc tag of the commercial protein
Description: SPR Biacore T200, EphA2-Fc captured, single-cycle kinetics; grade, legend 0 < A ≤ 1 nM.
Conditions: not given
The procedure:
The HBS-P+ buffer (10 mM HEPES (pH7.4), 150 mM NaCl, 0.05% (v/V) Surfactant P20) containing 1% DMSO was used as running buffer. Recombinant Human EphA2 Fc Protein (Fc tag, Elabscience) was captured by Human Antibody Capture kit (Cytiva). Peptide samples in DMSO were diluted with running buffer, and prepared five serial dilutions. Using these serial dilutions, kinetics of peptides against EphA2 was measured at a flow rate of 30 mL/min at 25° C. The method adopted for sample measurement was a single-cycle kinetics method. The analysis was conducted using the evaluation software 3.0 provided with Biacore T200. Kinetics fitting was done on the difference data obtained by subtracting the baseline data from sample measurement data. KD values were calculated based on the association rate constant (ka) and dissociation rate constant (kd).
For the molecule {CH2CO}-[dPhe(3-CONH2)][NMeF]N[Gly(cBu)][Hgn(3)][NMeE][Trp(1-Me,7-Cl)][hCit][Trp(1-Me)]T[hArg]C-NH2 (thioether N-12) [PDC_EphA2-00019427], the Kd is no more than 1 nM.

In a further assay the target is T2, Recombinant Human EphA2 Fc Protein (Homo sapiens, UniProt P29317).
T2 construct: purchased Elabscience
Put plainly: SPR interaction analysis (Biacore T200), kinetics of peptides against EphA2. It counts as binding. The conditions noted are these: Recombinant Human EphA2 Fc Protein captured by Human Antibody Capture kit; single-cycle kinetics; 25° C.; HBS-P+ buffer with 1% DMSO. The method, boiled down:
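KD derived from ka and kd, fitted on baseline-subtracted sensorgrams from single-cycle kinetics of five peptide dilutions. Running buffer: HBS-P+ (pH 7.4) plus 1% DMSO, 25° C, Biacore T200. Recombinant human EphA2-Fc held on an antibody capture surface.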
On to `C[C@H]1NC(=O)CSC[C@@H](C(N)=O)NC(=O)[C@H](CCCC(N)=O)NC(=O)[C@H]([C@@H](C)O)NC(=O)[C@H](Cc2cn(C)c3ccccc23)NC(=O)[C@H](CCCCNC(=O)N2CCN(CC(=O)O)CC2)NC(=O)[C@H](Cc2cn(C)c3ccccc23)NC(=O)[C@H](CCC(=O)O)N(C)C(=O)[C@H](CCCC(N)=O)NC(=O)[C@H](C2CCC2)NC(=O)[C@H](CC(N)=O)NC(=O)[C@H](Cc2cccnc2)N(C)C1=O` [PDC_EphA2-00010009, da-Me3Py-N-Cbg-Hgn-MeE-W1Me-KCOpipzaa-W1Me-T-Hgn-C-NH2] ({CH2CO}-[dA][NMe3Pal]N[Gly(cBu)][Aad](NH2)[NMeE][Trp(1-Me)]K([CO-Piperazinyl(4-CH2COOH)])[Trp(1-Me)]T[Aad](NH2)C-NH2; thioether N-12), for which the Kd was less than 1 nM.
In the case of `CC(C)[C@@H]1NC(=O)[C@H](Cc2cn(C)c3c(Cl)cccc23)NC(=O)[C@H](CC(N)=O)N(C)C(=O)[C@H](CCCC(N)=O)NC(=O)[C@H](C2CCC2)NC(=O)[C@H](CC(N)=O)NC(=O)[C@H](Cc2ccccc2)N(C)C(=O)[C@@H](Cc2cccc(C(N)=O)c2)NC(=O)CSC[C@@H](C(N)=O)NC(=O)[C@H](CCCC(N)=O)NC(=O)[C@H]([C@@H](C)O)NC(=O)[C@H](Cc2cn(C)c3ccccc23)NC1=O` [PDC_EphA2-00019421, df3CON-MeF-N-Cbg-Hgn-MeN-W1Me7Cl-V-W1Me-T-Hgn-C-NH2] ({CH2CO}-[dPhe(3-CONH2)][NMeF]N[Gly(cBu)][Aad](NH2)[NMeN][Trp(1-Me,7-Cl)]V[Trp(1-Me)]T[Aad](NH2)C-NH2; thioether N-12), the Kd was less than 1 nM.
Same read-out and setting: under `CC(=O)NCCCC[C@@H](NC(=O)CCNC(=O)[C@@H]1CSCC(=O)N[C@H](C)C(=O)N(C)[C@@H](Cc2cccnc2)C(=O)N[C@@H](CC(N)=O)C(=O)N[C@@H](CC(C)C)C(=O)N[C@@H](CCCC(=O)O)C(=O)N(C)[C@@H](CCC(=O)O)C(=O)N[C@@H](Cc2cn(C)c3ccccc23)C(=O)N[C@@H](CCCCNC(=O)N2CCN(CC(=O)O)CC2)C(=O)N[C@@H](Cc2cn(C)c3ccccc23)C(=O)N[C@@H]([C@@H](C)O)C(=O)N[C@@H](CCCC(N)=O)C(=O)N1)C(N)=O` [PDC_EphA2-00008094, da-Me3Py-N-L-Hgl-MeE-W1Me-KCOpipzaa-W1Me-T-Hgn-C-bA-dkAc-NH2] ({CH2CO}-[dA][NMe3Pal]NL[Aad][NMeE][Trp(1-Me)]K([CO-Piperazinyl(4-CH2COOH)])[Trp(1-Me)]T[Aad](NH2)C[βAla][dK](Ac)-NH2; thioether N-12) stands less than 1 nM.
On the same count and under the same terms, under `CC(=O)NCCCC[C@@H](NC(=O)[C@@H]1CSCC(=O)N[C@@H](Cc2ccccc2)C(=O)N[C@@H](Cc2ccnc(N)c2)C(=O)N[C@@H](CC(C)C)C(=O)N[C@@H](CCCCNC(N)=O)C(=O)N[C@@H](Cc2cn(C)c3ccccc23)C(=O)N(C)[C@@H](Cc2ccccc2)C(=O)N[C@@H](Cc2cn(C)c3ccccc23)C(=O)N1)C(N)=O` [PDC_EphA2-00022603, F-4Py2NH2-L-Hcit-W1Me-MeF-W1Me-C-dkAc-NH2] ({CH2CO}-F[Ala(2-NH2-4-pyridyl)]L[hCit][Trp(1-Me)][NMeF][Trp(1-Me)]C[dK](Ac)-NH2; thioether N-8) stands 100 to 400 nM; under `C[C@H]1NC(=O)CSC[C@@H](C(N)=O)NC(=O)[C@H](CCCC(N)=O)NC(=O)[C@H]([C@@H](C)O)NC(=O)[C@H](Cc2cn(C)c3ccccc23)NC(=O)[C@H](CCCCNC(=O)N2CCN(CC(=O)O)CC2)NC(=O)[C@H](Cc2cn(C)c3ccccc23)NC(=O)[C@H](Cc2ccccc2)N(C)C(=O)[C@H](CCCC(N)=O)NC(=O)[C@H](C2CCCCC2)NC(=O)[C@H](CC(N)=O)NC(=O)[C@H](Cc2cccnc2)N(C)C1=O` [PDC_EphA2-00010005, da-Me3Py-N-Chg-Hgn-MeF-W1Me-KCOpipzaa-W1Me-T-Hgn-C-NH2] ({CH2CO}-[dA][NMe3Pal]N[Chg][Aad](NH2)[NMeF][Trp(1-Me)]K([CO-Piperazinyl(4-CH2COOH)])[Trp(1-Me)]T[Aad](NH2)C-NH2; thioether N-12), less than 1 nM.
Turning to `CC(C)C[C@@H]1NC(=O)[C@H](CC(N)=O)NC(=O)[C@H](Cc2cccnc2)N(C)C(=O)[C@@H](C)NC(=O)CSC[C@@H](C(N)=O)NC(=O)[C@H](CCCC(N)=O)NC(=O)[C@H]([C@@H](C)O)NC(=O)[C@H](Cc2cn(C)c3ccccc23)NC(=O)[C@H](CCCCNC(=O)N2CCN(CC(=O)O)CC2)NC(=O)[C@H](Cc2cn(C)c3ccccc23)NC(=O)[C@H](Cc2ccc(Cl)cc2)N(C)C(=O)[C@H](CCCC(=O)O)NC1=O` [PDC_EphA2-00018527, da-Me3Py-N-L-Hgl-MeF4C-W1Me-KCOpipzaa-W1Me-T-Hgn-C-NH2] ({CH2CO}-[dA][NMe3Pal]NL[Aad][NMePhe(4-Cl)][Trp(1-Me)]K([CO-Piperazinyl(4-CH2COOH)])[Trp(1-Me)]T[Aad](NH2)C-NH2; thioether N-12), the Kd is less than 1 nM.
On the same count and under the same terms, under `C[C@@H](O)[C@@H]1NC(=O)[C@H](Cc2cn(C)c3ccccc23)NC(=O)[C@H](CCC(=O)NC[C@H](O)[C@@H](O)[C@H](O)[C@H](O)CO)NC(=O)[C@H](Cc2cn(C)c3c(Cl)cccc23)NC(=O)[C@H](Cc2ccccc2)N(C)C(=O)[C@H](CCCC(N)=O)NC(=O)[C@H](C2CCC2)NC(=O)[C@H](CC(N)=O)NC(=O)[C@H](Cc2cccnc2)N(C)C(=O)[C@@H](Cc2cccc(C(N)=O)c2)NC(=O)CSC[C@@H](C(N)=O)NC(=O)[C@H](CCCC(N)=O)NC1=O` [PDC_EphA2-00019433, df3CON-Me3Py-N-Cbg-Hgn-MeF-W1Me7Cl-Qglucamine-W1Me-T-Hgn-C-NH2] ({CH2CO}-[dPhe(3-CONH2)][NMe3Pal]N[Gly(cBu)][Aad](NH2)[NMeF][Trp(1-Me,7-Cl)]E(NH(1-deoxy-D-glucityl))[Trp(1-Me)]T[Aad](NH2)C-NH2; thioether N-12) stands less than 1 nM; under `CC(=O)NCCCC[C@@H](NC(=O)CCNC(=O)[C@@H]1CSCC(=O)N[C@@H](C)C(=O)N(C)[C@@H](Cc2cccnc2)C(=O)N[C@@H](CC(N)=O)C(=O)N[C@@H](CC(C)C)C(=O)N[C@@H](CCCC(=O)O)C(=O)N(C)[C@@H](Cc2ccccc2)C(=O)N[C@@H](Cc2cn(C)c3ccccc23)C(=O)N[C@@H](CCCCNC(=O)N2CCN(CC(=O)O)CC2)C(=O)N[C@@H](Cc2cn(C)c3ccccc23)C(=O)N[C@@H]([C@@H](C)O)C(=O)N[C@@H](CCC(=O)O)C(=O)N1)C(N)=O` [PDC_EphA2-00008097, A-Me3Py-N-L-Hgl-MeF-W1Me-KCOpipzaa-W1Me-T-E-C-bA-dkAc-NH2] ({CH2CO}-A[NMe3Pal]NL[Aad][NMeF][Trp(1-Me)]K([CO-Piperazinyl(4-CH2COOH)])[Trp(1-Me)]TEC[βAla][dK](Ac)-NH2; thioether N-12), 1 to 10 nM.
As to `C[C@H]1NC(=O)CSC[C@@H](C(N)=O)NC(=O)[C@H](CCCC(N)=O)NC(=O)[C@H]([C@@H](C)O)NC(=O)[C@H](Cc2cn(C)c3ccccc23)NC(=O)[C@H](CCC(=O)NC[C@H](O)[C@@H](O)[C@H](O)[C@H](O)CO)NC(=O)[C@H](Cc2cn(C)c3ccccc23)NC(=O)[C@H](Cc2ccccc2)N(C)C(=O)[C@H](CCCC(N)=O)NC(=O)[C@H](C2CCC2)NC(=O)[C@H](CC(N)=O)NC(=O)[C@H](Cc2ccccc2)N(C)C1=O` [PDC_EphA2-00013917, da-MeF-N-Cbg-Hgn-MeF-W1Me-QGlucamine-W1Me-T-Hgn-C-NH2] ({CH2CO}-[dA][NMeF]N[Gly(cBu)][Aad](NH2)[NMeF][Trp(1-Me)]E(NH(1-deoxy-D-glucityl))[Trp(1-Me)]T[Aad](NH2)C-NH2; thioether N-12), the Kd was less than 1 nM.
Same read-out and setting: under `C[C@@H](O)[C@@H]1NC(=O)[C@H](Cc2cn(C)c3ccccc23)NC(=O)[C@H](CCCCNC(=O)N2CCN(CC(=O)O)CC2)NC(=O)[C@H](Cc2cn(C)c3c(Cl)cccc23)NC(=O)[C@H](Cc2cccnc2)N(C)C(=O)[C@H](CCCC(N)=O)NC(=O)[C@H](C2CCC2)NC(=O)[C@H](CC(N)=O)NC(=O)[C@H](Cc2ccccc2)N(C)C(=O)[C@@H](Cc2cccc(C(N)=O)c2)NC(=O)CSC[C@@H](C(N)=O)NC(=O)[C@H](CCCC(N)=O)NC1=O` [PDC_EphA2-00019436, df3CON-MeF-N-Cbg-Hgn-Me3Py-W1Me7Cl-KCOpipzaa-W1Me-T-Hgn-C-NH2] ({CH2CO}-[dPhe(3-CONH2)][NMeF]N[Gly(cBu)][Aad](NH2)[NMe3Pal][Trp(1-Me,7-Cl)]K([CO-Piperazinyl(4-CH2COOH)])[Trp(1-Me)]T[Aad](NH2)C-NH2; thioether N-12) stands less than 1 nM; under `CC(C)C[C@@H]1NC(=O)[C@H](CC(N)=O)NC(=O)[C@H](Cc2cccnc2)N(C)C(=O)[C@@H](C)NC(=O)CSC[C@@H](C(N)=O)NC(=O)[C@H](CCCC(N)=O)NC(=O)[C@H]([C@@H](C)O)NC(=O)[C@H](Cc2cn(C)c3ccccc23)NC(=O)[C@H](CCCCNC(=O)N2CCN(CC(=O)O)CC2)NC(=O)[C@H](Cc2cn(C)c3ccccc23)NC(=O)[C@H](Cc2ccccc2)N(C)C(=O)[C@H](CCCC(N)=O)NC1=O` [PDC_EphA2-00009998, da-Me3Py-N-L-Hgn-MeF-W1Me-KCOpipzaa-W1Me-T-Hgn-C-NH2] ({CH2CO}-[dA][NMe3Pal]NL[Aad](NH2)[NMeF][Trp(1-Me)]K([CO-Piperazinyl(4-CH2COOH)])[Trp(1-Me)]T[Aad](NH2)C-NH2; thioether N-12), less than 1 nM.
